Results from patent publication US9371320B2, “Heterocyclic compound” (TAKEDA PHARMACEUTICAL COMPANY LIMITED, priority 2012, dated 2016).

Assays:
Tyk2 = target: T1, Tyk2 (Homo sapiens, UniProt P29597); assay: Tyk2 enzyme inhibition test (LANCE method); format: biochemical; settings: for inhibition at 1 µM: test compound 1 μM, read-out: Inhibitory rate (%) Tyk2 1 μM; for inhibition at 10 µM: test compound 10 μM, read-out: Inhibitory rate (%) Tyk2 10 μM
T1 construct: purchased Invitrogen
Outline: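 Recombinant Tyk2 (375 ng/mL stock) with ULight-JAK1 peptide (300 nM stock) and ATP (30 μM stock) in HEPES pH 7.5/MgCl2/EGTA/DTT buffer, 1 h at room temperature. Stopped with EDTA plus Eu-anti-phosphotyrosine antibody; TR-FRET read at 665 nm after 1 h. No-enzyme wells define 100% inhibition.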

JAK1 = target: T2, JAK1 (Homo sapiens, UniProt P23458); assay: JAK1 enzyme inhibition test (LANCE method); format: biochemical; settings: for inhibition at 1 µM: test compound 1 μM, read-out: Inhibitory rate (%) JAK1 1 μM; for inhibition at 10 µM: test compound 10 μM, read-out: Inhibitory rate (%) JAK1 10 μM
T2 construct: purchased Invitrogen
T2 sequence (P23458 whole entry): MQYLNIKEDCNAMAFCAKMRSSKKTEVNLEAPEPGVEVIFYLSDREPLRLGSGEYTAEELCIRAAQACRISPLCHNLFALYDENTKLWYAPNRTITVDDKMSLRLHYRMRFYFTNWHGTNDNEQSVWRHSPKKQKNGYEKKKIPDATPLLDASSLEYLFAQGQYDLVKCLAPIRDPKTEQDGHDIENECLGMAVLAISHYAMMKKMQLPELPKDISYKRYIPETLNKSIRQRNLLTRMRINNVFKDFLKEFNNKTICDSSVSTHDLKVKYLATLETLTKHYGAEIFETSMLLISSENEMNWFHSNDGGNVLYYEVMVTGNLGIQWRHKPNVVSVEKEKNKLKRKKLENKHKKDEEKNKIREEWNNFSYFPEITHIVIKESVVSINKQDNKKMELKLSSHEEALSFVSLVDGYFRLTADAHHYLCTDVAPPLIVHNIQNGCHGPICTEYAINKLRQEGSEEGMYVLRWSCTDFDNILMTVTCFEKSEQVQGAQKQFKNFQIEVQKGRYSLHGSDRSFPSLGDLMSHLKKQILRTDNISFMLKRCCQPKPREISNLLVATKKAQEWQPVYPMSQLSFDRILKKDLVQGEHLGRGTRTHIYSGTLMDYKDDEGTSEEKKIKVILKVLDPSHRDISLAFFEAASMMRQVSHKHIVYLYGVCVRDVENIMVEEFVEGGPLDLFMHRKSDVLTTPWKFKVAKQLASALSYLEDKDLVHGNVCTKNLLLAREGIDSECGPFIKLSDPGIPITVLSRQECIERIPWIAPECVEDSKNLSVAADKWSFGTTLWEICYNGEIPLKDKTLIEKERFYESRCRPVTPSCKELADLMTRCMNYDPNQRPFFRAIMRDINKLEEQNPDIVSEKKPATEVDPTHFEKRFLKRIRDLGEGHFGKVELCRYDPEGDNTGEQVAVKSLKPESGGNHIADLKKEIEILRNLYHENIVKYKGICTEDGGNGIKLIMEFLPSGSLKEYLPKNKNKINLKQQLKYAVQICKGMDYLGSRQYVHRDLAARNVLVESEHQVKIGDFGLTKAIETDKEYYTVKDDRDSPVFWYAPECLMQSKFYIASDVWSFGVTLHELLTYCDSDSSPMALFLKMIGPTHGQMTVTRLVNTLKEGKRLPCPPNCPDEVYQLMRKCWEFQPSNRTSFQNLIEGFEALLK
Outline: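 TR-FRET (LANCE) kinase assay using JAK1 at 187.5 ng/mL, ULight-JAK1 peptide at 300 nM and ATP at 150 μM, given as solution concentrations before mixing. Buffer was 50 mM HEPES pH 7.5 with 10 mM MgCl2 and 2 mM DTT, and the reaction ran 1 h at room temperature. Eu anti-phosphotyrosine signal at 665 nm was expressed relative to a no-enzyme well, taken as 100% inhibition.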

T1 sequence (P29597 whole entry): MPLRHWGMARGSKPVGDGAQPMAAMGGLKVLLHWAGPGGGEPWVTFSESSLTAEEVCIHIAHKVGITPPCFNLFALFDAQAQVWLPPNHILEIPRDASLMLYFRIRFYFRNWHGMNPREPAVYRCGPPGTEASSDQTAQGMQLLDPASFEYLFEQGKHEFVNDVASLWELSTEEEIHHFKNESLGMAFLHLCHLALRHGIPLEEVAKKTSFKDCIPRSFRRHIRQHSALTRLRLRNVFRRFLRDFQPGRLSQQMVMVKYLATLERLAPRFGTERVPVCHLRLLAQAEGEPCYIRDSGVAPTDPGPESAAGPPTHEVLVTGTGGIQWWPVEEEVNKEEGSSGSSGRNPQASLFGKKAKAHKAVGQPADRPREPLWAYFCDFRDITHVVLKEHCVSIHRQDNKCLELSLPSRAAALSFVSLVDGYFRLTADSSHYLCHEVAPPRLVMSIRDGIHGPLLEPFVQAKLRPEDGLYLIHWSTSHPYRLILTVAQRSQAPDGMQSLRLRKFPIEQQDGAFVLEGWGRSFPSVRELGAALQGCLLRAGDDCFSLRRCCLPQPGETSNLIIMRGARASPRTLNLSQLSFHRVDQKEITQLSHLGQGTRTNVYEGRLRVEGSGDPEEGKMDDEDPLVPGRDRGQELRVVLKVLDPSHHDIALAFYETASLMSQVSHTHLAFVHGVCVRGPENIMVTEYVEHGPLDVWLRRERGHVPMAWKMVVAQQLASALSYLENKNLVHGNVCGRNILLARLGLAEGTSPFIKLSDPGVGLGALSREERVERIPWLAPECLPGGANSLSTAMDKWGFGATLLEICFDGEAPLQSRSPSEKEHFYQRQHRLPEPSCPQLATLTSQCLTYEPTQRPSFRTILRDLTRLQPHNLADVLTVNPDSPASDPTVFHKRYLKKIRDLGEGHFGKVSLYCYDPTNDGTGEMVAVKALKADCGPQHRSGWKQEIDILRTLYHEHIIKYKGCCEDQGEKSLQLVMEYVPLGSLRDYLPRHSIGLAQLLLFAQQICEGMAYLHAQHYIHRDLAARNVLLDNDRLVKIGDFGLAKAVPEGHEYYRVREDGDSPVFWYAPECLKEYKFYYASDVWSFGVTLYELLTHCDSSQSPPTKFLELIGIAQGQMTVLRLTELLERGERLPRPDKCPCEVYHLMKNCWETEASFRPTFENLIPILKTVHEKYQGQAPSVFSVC

Row | inhibition at 1 µM (Tyk2) | inhibition at 1 µM (JAK1) | inhibition at 10 µM (Tyk2) | inhibition at 10 µM (JAK1) | SMILES
1 | 92% | 35% |  |  | CNC(=O)c1ccc(-c2nn(-c3c(F)cccc3F)c3cc[nH]c(=O)c23)c(F)c1 [Example 294, 4-(1-(2,6-difluorophenyl)-4-oxo-4,5-dihydro-1H-pyrazolo[4,3-c]pyridin-3-yl)-3-fluoro-N-methylbenzamide]
2 |  |  | 80% | 24% | CNC(=O)c1ccc(-c2nn(-c3c(F)cccc3F)c3cc[nH]c(=O)c23)c(Cl)c1 [Example 295, 3-chloro-4-(1-(2,6-difluorophenyl)-4-oxo-4,5-dihydro-1H-pyrazolo[4,3-c]pyridin-3-yl)-N-methylbenzamide]
3 | 96% | 90% |  |  | NC(=O)c1cc(-c2nn(C3CCCC3)c3c(Cl)c[nH]c(=O)c23)cs1 [Example 296, 4-(7-chloro-1-cyclopentyl-4-oxo-4,5-dihydro-1H-pyrazolo[4,3-c]pyridin-3-yl)thiophene-2-carboxamide]
4 | 99% | 98% |  |  | NS(=O)(=O)c1ccc(Nc2nn(C3CCCC3)c3cc[nH]c(=O)c23)cc1 [Example 297, 4-((1-cyclopentyl-4-oxo-4,5-dihydro-1H-pyrazolo[4,3-c]pyridin-3-yl)amino)benzenesulfonamide]
5 |  |  | 58% | 81% | NC(=O)c1cc(-c2nn([C@H]3CC[C@@H](N)CC3)c3cc[nH]c(=O)c23)cs1 [Example 298, 4-(1-(cis-4-aminocyclohexyl)-4-oxo-4,5-dihydro-1H-pyrazolo[4,3-c]pyridin-3-yl)thiophene-2-carboxamide]
6 | 99% | 99% |  |  | NC(=O)c1cc(-c2nn([C@H]3CC[C@H](N)CC3)c3cc[nH]c(=O)c23)cs1 [Example 299, 4-(1-(trans-4-aminocyclohexyl)-4-oxo-4,5-dihydro-1H-pyrazolo[4,3-c]pyridin-3-yl)thiophene-2-carboxamide]
7 | 83% | 68% |  |  | Nc1ncc(-c2nn(-c3c(F)cccc3F)c3cc[nH]c(=O)c23)cn1 [Example 300, 3-(2-aminopyrimidin-5-yl)-1-(2,6-difluorophenyl)-1,5-dihydro-4H-pyrazolo[4,3-c]pyridin-4-one]
8 | 99% | 97% |  |  | CC(=O)N1CCC(c2ccc(-c3nn(-c4c(F)cccc4F)c4cc[nH]c(=O)c34)cc2)CC1 [Example 301, 3-(4-(1-acetylpiperidin-4-yl)phenyl)-1-(2,6-difluorophenyl)-1,5-dihydro-4H-pyrazolo[4,3-c]pyridin-4-one]
9 | 95% | 97% |  |  | COc1cc(N)cc(F)c1-n1cc(-c2csc(C(N)=O)c2)c2c(=O)[nH]ccc21 [Example 302, 4-(1-(4-amino-2-fluoro-6-methoxyphenyl)-4-oxo-4,5-dihydro-1H-pyrrolo[3,2-c]pyridin-3-yl)thiophene-2-carboxamide]
10 | 100% | 99% |  |  | Nc1cc(F)c(-n2nc(-c3ccc(S(N)(=O)=O)cc3)c3c(=O)[nH]ccc32)c(F)c1 [Example 303, 4-(1-(4-amino-2,6-difluorophenyl)-4-oxo-4,5-dihydro-1H-pyrazolo[4,3-c]pyridin-3-yl)benzenesulfonamide]
11 | 99% | 97% |  |  | O=C1COCCN1c1ccc(-c2nn(-c3c(F)cccc3F)c3cc[nH]c(=O)c23)cc1 [Example 304, 1-(2,6-difluorophenyl)-3-(4-(3-oxomorpholin-4-yl)phenyl)-1,5-dihydro-4H-pyrazolo[4,3-c]pyridin-4-one]
12 | 99% | 93% |  |  | N#Cc1cccc(F)c1-n1nc(-c2ccc(N3CCOCC3)cc2)c2c(=O)[nH]ccc21 [Example 305, 3-fluoro-2-(3-(4-(morpholin-4-yl)phenyl)-4-oxo-4,5-dihydro-1H-pyrazolo[4,3-c]pyridin-1-yl)benzonitrile]
